{"source": "patent US20050276766A1", "about": "“Methods and compositions for increasing skin remodeling” (Skin Biology, Inc., priority 2003, published 2005)", "test_system": "scar formation after surgical incisions", "test": "Scar formation after surgical incisions in mice, cream applied 24 hours after surgery", "type": "in vivo, Swiss-Webster mice", "details": "rated from 0 (little or no scarring) to 4 (maximum observed scarring); cream at pH 6.5 applied 24 hours after 1.25 cm surgical incision; 15 mice", "method": "This Example describes the use of a pastes prepared with the complexes of various copper peptides or copper complexes of amino acids and combinations of copper peptides or copper complexes of amino acids and salicylic acid to reduce scarring after surgery in animals.\nSurgical incisions (1.25 cm) were made on the backs of anesthetized, 35 gram, Swiss-Webster mice. To allow normal scar development, there was no treatment after surgery. But 24 hours after surgery, the scars were covered with a cream containing either copper peptide alone or in combination with salicylic acid. Control wounds were untreated.\nFor comparison, the amount of scar formation was rated from 0 (little or no scarring) to 4 (maximum observed scarring) after seven days.\nTable 1: Effect of cream at pH 6.5 with either peptide-copper complex or amino acid-copper complex or the combination of peptide copper/salicylic acid combination or amino acid copper/salicylic acid combination on scar formation", "data": [{"substance": "Gly-His-Lys-Copper(II)", "values": [{"measurement": "Scar Formation score after 7 days", "result": "2.7 ± 0.6"}]}]}
